Converted amounts (≈) assume the structure as drawn. Like-named read-outs stand apart in the source and are kept apart here.
What was measured:
[1] = system: Staphylococcus aureus 209P; assay: MIC, standard serial dilution method; format: cell-based; settings: Mueller-Hinton agar, 37° C
[2] = system: Staphylococcus aureus Ap01; assay: MIC, standard serial dilution method; format: cell-based; settings: resistance mechanism ANT(4'), Mueller-Hinton agar, 37° C
Bacillus subtilis PCI219 = assay: MIC, standard serial dilution method; format: cell-based; settings: Mueller-Hinton agar, 37° C
[3] = system: Corynebacterium bovis 1810; assay: MIC, standard serial dilution method; format: cell-based; settings: Mueller-Hinton agar, 37° C
Escherichia coli K-12 = assay: MIC, standard serial dilution method; format: cell-based; settings: K12
Escherichia coli K-12 R5 = assay: microbe, parasite or virus in culture; format: cell-based; settings: K12R5; Escherichia coli K-12 R5; resistance mechanism AAC(6'); Mueller-Hinton agar, 37° C
[4] = system: Escherichia coli K-12 ML 1629; assay: microbe, parasite or virus in culture; format: cell-based; settings: K12ML1629
[5] = system: Escherichia coli K-12 LA 290 R55; assay: microbe, parasite or virus in culture; format: cell-based; settings: K12LA290R55
Escherichia coli JR225 = assay: microbe, parasite or virus in culture; format: cell-based; settings: resistance mechanism AAC(3), Mueller-Hinton agar, 37° C
[6] = system: Escherichia coli JR66/W677; assay: microbe, parasite or virus in culture; format: cell-based; settings: resistance mechanism APH(3')-II, ANT(2"), Mueller-Hinton agar, 37° C
Mycobacterium 607 = assay: MIC, standard serial dilution method; format: cell-based; settings: Mueller-Hinton agar, 37° C
[7] = system: Klebsiella pneumoniae 22#3038; assay: MIC, standard serial dilution method; format: cell-based; settings: resistance mechanism APH(3')-II, ANT(2"), Mueller-Hinton agar, 37° C
Proteus rettgeri GN 311 = assay: MIC, standard serial dilution method; format: cell-based; settings: Providencia rettgeri, GN311; Proteus rettgeri GN 311; Mueller-Hinton agar, 37° C; read-out: MIC
Serratia marcescens = assay: MIC, standard serial dilution method; format: cell-based; settings: Mueller-Hinton agar, 37° C
Providencia sp. Pv 16 = assay: MIC, standard serial dilution method; format: cell-based; settings: SP.PV16, resistance mechanism AAC(2'), Mueller-Hinton agar, 37° C
[8] = system: Pseudomonas aeruginosa A3; assay: MIC, standard serial dilution method; format: cell-based; settings: Mueller-Hinton agar, 37° C
[9] = system: Pseudomonas aeruginosa GN 315; assay: MIC, standard serial dilution method; format: cell-based; settings: GN315; Pseudomonas aeruginosa GN 315; resistance mechanism AAC(6'); Mueller-Hinton agar, 37° C; read-out: MIC
in vivo = settings: mouse, iv, pH 7
From the text: Further, in order to estimate acute toxicity of the compound of the general formula (I) according to this invention, some examples of the compounds of this invention were independently dissolved in water to prepare aqueous solutions (as adjusted to pH 7 by addition of hydrochloric acid). […] The tested compounds of this invention are expressed by the same abbreviations as in Table 1. […] The comparative compounds as tested are also expressed by the same abbreviations as in Table 1.

[10] = Escherichia coli K-12, Mueller-Hinton agar, 37° C, read-out: MIC
[11] = Escherichia coli K-12 ML 1629, resistance mechanism APH(3')-I, Mueller-Hinton agar, 37° C, read-out: MIC
[12] = Escherichia coli K-12 LA 290 R55, resistance mechanism ANT(2"), Mueller-Hinton agar, 37° C

Row | Structure (SMILES) | MIC [1] [µg/mL] | MIC [2] [µg/mL] | MIC (Bacillus subtilis PCI219) [µg/mL] | MIC [3] [µg/mL] | MIC (Escherichia coli K-12; [10]) [µg/mL] | MIC (Escherichia coli K-12 R5) [µg/mL] | MIC [4, 11] [µg/mL] | MIC ([5]; Escherichia coli) [µg/mL] | MIC (Escherichia coli JR225) [µg/mL] | MIC [6] [µg/mL] | MIC (Mycobacterium 607) [µg/mL] | MIC [7] [µg/mL] | MIC (Proteus rettgeri GN 311) [µg/mL] | MIC (Serratia marcescens) [µg/mL] | MIC (Providencia sp. Pv 16) [µg/mL] | MIC [8] [µg/mL] | MIC [9] [µg/mL] | LD50 (in vivo) [mg/kg] | MIC [5, 12] [µg/mL] | MIC ([4]; Escherichia coli) [µg/mL] | also measured
1 | CN[C@@H]1[C@@H](O)[C@@H](O[C@H]2[C@H](N)C[C@H](N)[C@@H](O[C@H]3O[C@H]([C@@H](C)NC)CC[C@H]3N)C2(F)F)OC[C@]1(C)O [Compound 5FF-Genta-C1, 5-deoxy-5,5-difluorogentamicin C1] | 1.56 (≈ 3.14 µM) | 12.5 (≈ 25.1 µM) | 1.56 (≈ 3.14 µM) | 3.12 (≈ 6.27 µM) | 1.56 (≈ 3.14 µM) | 1.56 (≈ 3.14 µM) | 1.56 (≈ 3.14 µM) | 0.78 (≈ 1.57 µM) | 12.5 (≈ 25.1 µM) | 0.78 (≈ 1.57 µM) | 1.56 (≈ 3.14 µM) | 3.12 (≈ 6.27 µM) | 1.56 (≈ 3.14 µM) | 1.56 (≈ 3.14 µM) | 25 (≈ 50.2 µM) | 6.25 (≈ 12.6 µM) | 25 (≈ 50.2 µM) | ~200 |  |  | 
2 | CCN[C@@H]1C[C@H](N)[C@@H](O[C@H]2OC(CN)=CC[C@H]2N)[C@H](O)[C@H]1O[C@H]1OC[C@](C)(O)[C@H](NC)[C@H]1O [Netilmicin, netilmicin, reference compound] | < 0.2 | 0.78 (≈ 1.64 µM) | < 0.2 | 1.56 (≈ 3.28 µM) | < 0.2 | 50 (≈ 105 µM) | 0.39 (≈ 0.82 µM) |  | 12.5 (≈ 26.3 µM) | 0.39 (≈ 0.82 µM) | 1.56 (≈ 3.28 µM) | 0.39 (≈ 0.82 µM) | 0.39 (≈ 0.82 µM) | 6.25 (≈ 13.1 µM) | 6.25 (≈ 13.1 µM) | 0.39 (≈ 0.82 µM) | > 100 | 30 | 0.39 (≈ 0.82 µM) |  | 
3 | NC[C@H]1O[C@H](O[C@@H]2[C@@H](N)C[C@@H](N)[C@H](O[C@H]3O[C@H](CO)[C@@H](O)[C@H](N)[C@H]3O)C2(F)F)[C@H](N)C[C@@H]1O [Compound 5FF-TOB, 5-deoxy-5,5-difluorotobramycin] | 0.39 (≈ 0.8 µM) | 25 (≈ 51.3 µM) | 0.39 (≈ 0.8 µM) | 1.56 (≈ 3.2 µM) | 0.39 (≈ 0.8 µM) | 25 (≈ 51.3 µM) |  | 0.78 (≈ 1.6 µM) | 0.39 (≈ 0.8 µM) | 1.56 (≈ 3.2 µM) | 0.39 (≈ 0.8 µM) | 0.78 (≈ 1.6 µM) | < 0.2 | 3.12 (≈ 6.4 µM) | 12.5 (≈ 25.6 µM) | < 0.2 | 100 (≈ 205 µM) | 260 |  | 0.78 (≈ 1.6 µM) | 
4 | NC[C@@H]1CC[C@@H](N)[C@@H](O[C@@H]2[C@@H](N)C[C@@H](N)[C@H](O[C@H]3O[C@H](CO)[C@@H](O)[C@H](N)[C@H]3O)C2(F)F)O1 [Compound 5FF-DKB, 5,3',4'-trideoxy-5,5-difluorokanamycin B] | 0.78 (≈ 1.65 µM) | 3.12 (≈ 6.62 µM) | 0.39 (≈ 0.827 µM) | 1.56 (≈ 3.31 µM) | 0.39 (≈ 0.827 µM) | 100 (≈ 212 µM) |  |  | 3.12 (≈ 6.62 µM) | 1.56 (≈ 3.31 µM) | 1.56 (≈ 3.31 µM) | 1.56 (≈ 3.31 µM) | 0.39 (≈ 0.827 µM) | 12.5 (≈ 26.5 µM) | 12.5 (≈ 26.5 µM) | 0.39 (≈ 0.827 µM) | > 100 | 250 | 1.56 (≈ 3.31 µM) | 0.78 (≈ 1.65 µM) | 
5 | CN[C@@H]1[C@@H](O)[C@@H](O[C@H]2[C@H](N)C[C@H](N)[C@@H](O[C@H]3O[C@H]([C@@H](C)N)CC[C@H]3N)C2(F)F)OC[C@]1(C)O [Compound 5FF-Genta-C2, 5-deoxy-5,5-difluorogentamicin C2] | 0.78 (≈ 1.61 µM) | 6.25 (≈ 12.9 µM) | 0.2 (≈ 0.414 µM) | 0.78 (≈ 1.61 µM) |  | 1.56 (≈ 3.23 µM) |  |  | 6.25 (≈ 12.9 µM) | 3.12 (≈ 6.45 µM) | 0.78 (≈ 1.61 µM) | 1.56 (≈ 3.23 µM) | 0.78 (≈ 1.61 µM) | 0.78 (≈ 1.61 µM) | 6.25 (≈ 12.9 µM) | 1.56 (≈ 3.23 µM) | 25 (≈ 51.7 µM) | ~230 | 3.12 (≈ 6.45 µM) | 0.78 (≈ 1.61 µM) | MIC (Escherichia coli K-12; Escherichia coli): 0.78 µg/mL (≈ 1.61 µM)

From patent publication US5527781A, “4-O-(aminoglycosyl)- or 4,6-di-O-(aminoglycosyl)-2,5-dideoxy-5,5-difluorostreptamine derivatives” (Zaidan Hojin Biseibutsu Kagaku Kenkyu Kai, priority 1990, dated 1996)
